Results reported in PMC4126670 (ChemMedChem, 2014).
Values after ≈ are worked out from the molar mass of the structure shown. “Also recorded” adds a separate entry of the source. Like-named read-outs stand apart in the source and are kept apart here.

Legend:
[1] = test system: M. tuberculosis; assay: Antibacterial growth assay; type: cell-based, Mycobacterium tuberculosis
[2] = test system: M. tuberculosis Erdman; conditions: mice, bacterial load in lung or spleen; cited from earlier work
[3] = test system: M. tuberculosis; conditions: cited from earlier work
[4] = target: T1, wild-type InhA (Mycobacterium tuberculosis, UniProt P9WGR1); assay: InhA enzyme inhibition, steady state kinetics; type: biochemical
[5] = test system: M. tuberculosis Erdman; assay: Rapid M. tuberculosis animal model of efficacy; type: in vivo, Mycobacterium tuberculosis; conditions: for reduction of bacterial counts in the spleen: GKO C57BL/6 mice, IP, 10 days of treatment, compared to untreated controls; for efficacy in rapid murine model of TB infection: mice, IP delivery, bacterial CFUs in spleen
[6] = target: T1, wild-type InhA; conditions: cited from earlier work
[7] = target: T1, wild-type InhA; assay: InhA progress curve assays; type: biochemical; conditions: for Slow-onset: Yes/No
[8] = Table 1, lowest concentration inhibiting visible growth
[9] = Table 1, slow-onset (time-dependent) inhibition of InhA

T1 sequence (P9WGR1 whole entry, looked up): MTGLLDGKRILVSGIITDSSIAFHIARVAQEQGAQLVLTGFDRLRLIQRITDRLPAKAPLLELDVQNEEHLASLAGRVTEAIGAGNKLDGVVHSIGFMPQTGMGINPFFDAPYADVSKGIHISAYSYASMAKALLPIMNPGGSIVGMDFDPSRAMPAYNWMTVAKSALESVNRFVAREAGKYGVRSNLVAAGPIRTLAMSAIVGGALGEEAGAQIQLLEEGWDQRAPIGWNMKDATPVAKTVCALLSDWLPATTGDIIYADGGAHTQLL

Compound	Slow-onset [7, 9]	MIC ([1]; Mycobacterium tuberculosis)	IC50 [4]	further results
CCCCCCc1ccc(Oc2ccccc2)c(O)c1 [PT004]	–	–	–	MIC [1, 8]: 2.1 µg/mL (≈ 7.77 µM); MIC ([1]; Table 2): 2.1 ± 0.9 µg/mL (≈ 7.77 µM); efficacy in rapid murine model of TB infection [2]: failed to observe a significant reduction in bacterial load; also recorded: did not show efficacy; also recorded: did not significantly reduce the bacterial load; also recorded: does not demonstrate efficacy; also recorded: lack of efficacy; bacterial load in rapid macrophage model of TB infection [3]: had efficacy in a macrophage TB assay; also recorded: reduced the bacterial load
CCCCCCc1ccc(Oc2ccccc2[N+](=O)[O-])c(O)c1 [PT010]	–	–	–	MIC [1, 8]: 12.50 µg/mL (≈ 39.6 µM)
CCCCCCc1ccc(Oc2ccccc2N)c(O)c1 [PT013]	–	–	–	MIC [1, 8]: 3.13 µg/mL (≈ 11 µM)
CCCCCCc1ccc(Oc2ccccc2C)c(O)c1 [PT070]	slow onset and Yes	–	–	MIC [1, 8]: 3.125 µg/mL (≈ 11 µM); MIC ([1]; Table 2): 3.125 µg/mL (≈ 11 µM); IC50 ([4]; Table 1, enzyme concentration 100 nM): 50.7 ± 4 nM; reduction of bacterial counts in the spleen [5]: 0.57 ± 0.26 log10; efficacy in rapid murine model of TB infection [5]: demonstrated efficacy; residence time on InhA [6]: 24 min; Ki ([7]; Table 1): 0.044 ± 0.005 nM; residence time ([7]; Table 1): 24 ± 2 min
CCCCCCc1ccc(Oc2ccccn2)c(O)c1 [PT077]	–	–	–	MIC ([1]; Table 3): 3.13 µg/mL (≈ 11.5 µM)
CCCCCCc1ccc(Oc2ccccc2Cl)c(O)c1 [PT091, 2-(2-Chlorophenoxy)-5-hexylphenol]	slow onset and Yes	1.56 µg/mL (≈ 5.12 µM)	–	reduction of bacterial counts in the spleen [5]: 0.69 ± 0.22 log10; efficacy in rapid murine model of TB infection [5]: demonstrated efficacy; residence time [7]: 21 ± 3 min
CCCCCCc1ccc(Oc2ccccc2Br)c(O)c1 [PT092, 2-(2-Bromophenoxy)-5-hexylphenol]	Yes	3.12 µg/mL (≈ 8.95 µM)	–	residence time [7]: 30 ± 3 min
CCCCCCc1ccc(Oc2ccccc2C(F)(F)F)c(O)c1 [PT095, 5-Hexyl-2-(2-(trifluoromethyl)phenoxy)phenol]	No	50 µg/mL (≈ 148 µM)	29.7 ± 1.2 nM	–
CCCCCCc1ccc(Oc2ccccc2I)c(O)c1 [PT096, 5-Hexyl-2-(2-iodophenoxy)phenol]	No	25 µg/mL (≈ 63.1 µM)	44.6 ± 7.5 nM	Ki [7]: 3.72 ± 5.13 nM
CCCCCCc1ccc(Oc2ccc([N+](=O)[O-])cc2C)c(O)c1 [PT107, 5-Hexyl-2-(2-methyl-4-nitrophenoxy)phenol]	–	6.25 µg/mL (≈ 19 µM)	50 ± 5 nM	Ki [7]: 0.13 ± 0.03 nM
CCCCCCc1ccc(Oc2c(C)cccc2C)c(O)c1 [PT108, 2-(2,6-Dimethylphenoxy)-5-hexylphenol]	–	100 µg/mL (≈ 335 µM)	1570 ± 200 nM	–
CCCCCCc1ccc(Oc2c(Cl)cccc2Cl)c(O)c1 [PT109, 2-(2,6-Dichlorophenoxy)-5-hexylphenol]	–	25 µg/mL (≈ 73.7 µM)	86 ± 6 nM	–
CCCCCCc1ccc(Oc2c(C)cccc2N)c(O)c1 [PT110, 2-(2-Amino-6-methylphenoxy)-5-hexylphenol]	–	> 100 µg/mL	–	MIC ([1]; Table 2): total loss
CCCCCCc1ccc(Oc2c(F)cccc2C#N)c(O)c1 [PT111, 3-Fluoro-2-(4-hexyl-2-hydroxyphenoxy) benzonitrile]	–	25 µg/mL (≈ 79.8 µM)	100 ± 9 nM	–
CCCCCCc1ccc(Oc2cnccc2N)c(O)c1 [PT112, 2-((4-Aminopyridin-3-yl)oxy)-5-hexylphenol]	–	50 µg/mL (≈ 175 µM)	69000 ± 700 nM	fold increase in IC50 value, amino group compared to fluorine group ([4]; PT013 vs. PT113, PT112 vs. PT161): 1700 fold; fold difference in IC50 value between PT134 and PT112 ([4]; PT134 (2'- and 4'-N) vs 4'-N analogue PT112): 300 fold
CCCCCCc1ccc(Oc2ccccc2F)c(O)c1 [PT113, 2-(2-Fluorophenoxy)-5-hexylphenol]	Yes	1.56 µg/mL (≈ 5.41 µM)	12.1 ± 4.8 nM	Ki [7]: 0.09 ± 0.02 nM; residence time [7]: 9 ± 3 min
CCCCCCc1ccc(Oc2ccccc2O)c(O)c1 [PT114, 5-Hexyl-2-(2-hydroxyphenoxy)phenol]	No	12.5 µg/mL (≈ 43.6 µM)	48 ± 3 nM	Ki [7]: 15.9 ± 3.7 nM
CCCCCCc1ccc(Oc2cnccc2C#N)c(O)c1 [PT115, 3-(4-Hexyl-2-hydroxyphenoxy)isonicotinonitrile]	–	12.5 µg/mL (≈ 42.2 µM)	891 ± 106 nM	residence time [7]: > 20 min; Slow-onset ([7]; Table 3): Yes
CCCCCCc1ccc(Oc2cnccc2C(=O)O)c(O)c1 [PT116, 3-(4-Hexyl-2-hydroxyphenoxy)isonicotinic acid]	–	25 µg/mL (≈ 79.3 µM)	> 12000 nM	–
CCCCCCc1ccc(Oc2ccccc2C#N)c(O)c1 [PT119, 2-(4-Hexyl-2-hydroxyphenoxy)benzonitrile]	Yes	2.5 µg/mL (≈ 8.46 µM)	–	residence time [7]: 80 ± 12 min; fold reduction of binding affinity compared to PT070 ([7]; ratio of Ki): ~ 50 fold
CCCCCCc1ccc(Oc2c(F)cccc2Cl)c(O)c1 [PT133, 2-(2-Chloro-6-fluorophenoxy)-5-hexylphenol]	–	25 µg/mL (≈ 77.4 µM)	79.7 ± 24.4 nM	–
CCCCCCc1ccc(Oc2cncnc2N)c(O)c1 [PT134, 2-((4-Aminopyrimidin-5-yl)oxy)-5-hexylphenol]	–	3.12 µg/mL (≈ 10.9 µM)	239 ± 46.8 nM	–
CCCCCCc1ccc(Oc2cccnc2F)c(O)c1 [PT161, 2-((2-Fluoropyridin-3-yl)oxy)-5-hexylphenol]	–	0.312 µg/mL (≈ 1.08 µM)	40 ± 20 nM	Slow-onset ([7]; Table 3): slow-onset inhibition and Yes
CCCCCCc1ccc(Oc2cccnc2C#N)c(O)c1 [PT164, 3-(4-Hexyl-2-hydroxyphenoxy)picolinonitrile]	–	< 0.39 µg/mL	308 ± 4.2 nM	Slow-onset ([7]; Table 3): slow-onset inhibition and Yes
